Data taken from US5821232A, “Synergistic therapeutic compositions and methods” (Pfizer Inc., priority 1995, dated 1998).

Tests used:
Male Hartley guinea pigs = test: Mean arterial pressure lowering in conscious sodium-depleted guinea pigs, i.v. dosing; type: in vivo, guinea pig; set-up: unit not given beside the values; details: trapezoidal method
Method: Male Hartley guinea pigs weighing between 250 and 300 g were obtained from Charles River Laboratories, Lakeview, New Jersey. The guinea pigs were allowed to acclimate to their environment for at least two weeks. Then, they were placed on a low sodium diet (Purina Modified Guinea Pig Chow, no sodium added) for 14 days and were given injections of furosemide (Lasix® 2 mg/kg, i.m.) on three non-consecutive days. At least 24 hours prior to experimentation, the animals were anesthetized with xylazine (Rompune, 10 mg/kg, s.c.) and ketamine (Vetalar®, 80 mg/kg, i.m.) and, using aseptic technique, cannulae (PE-50) were implanted into the aorta via the right carotid artery for direct measurement of mean arterial pressure (MAP). Cannulae (PE-50) were also placed into the left jugular vein for intravenous compound administration. Both catheters were exteriorized at the intrascapular region of the animal's back and flushed with a heparinized dextrose solution. To prevent the formation of clots, each cannula was filled with heparin at a concentration of 1000 units/ml. After surgery, an antibacterial, trimethoprim/sulfamethoxazole (Di-Trim®, 30 mg/kg, s.c.), was given to the animals. The animals were allowed to recover with water and no-sodium chow administered ad libitum. On the day of the experiment, each guinea pig was given an additional injection of furosemide (6 mg/kg, i.m.) to accelerate sodium loss and was placed in a sound-proof, ventilated box with one-way glass for observation. Mean arterial pressure was monitored with a Statham 23DB strain gauge pressure transducer previously calibrated using a mercury manometer. The arterial pressure waveform and derived heart rate were continuously recorded on a Grass Model 7D oscillograph. Arterial pressure waveform samples were obtained approximately every 20 seconds using an IBM PS/2 model 30 computer equipped with a custom algorithm designed to calculate mean arterial pressure from the integrated waveform. Values were obtained for a period of at least one hour prior to and 2 hours (usually 4 hours) after dosing. The test compounds were infused intravenously followed by a 250 μl flush with heparinized dextrose solution.
Dose response curves for the renin inhibitor (RI) (0.3 to 3.0 mg/kg, i.v.) and captopril (0.03 to 1.0 mg/kg, i.v.) were obtained (n =4 to 8) in order to quantitate baseline responses to each drug. In experiments where the renin inhibitor and captopril were co-administered, the renin inhibitor was given first immediately followed by captopril. Doses of renin inhibitor and angiotensin converting enzyme inhibitor, when given together, were chosen on the basis of causing submaximal hypotensive effects. Therefore, the contributory effect of each drug could be quantitated by integration and compared to the expected effect to determine whether additive or synergistic responses had occurred.
Employing the procedure described above, the changes in mean arterial pressure (AMAP) for the renin inhibitor (RI), the ACE inhibitor (captopril) and the renin inhibitor (RI), plus the ACE inhibitor (captopril) were obtained for various doses and are shown in Table I, below. The AOC-MAP is the area over the dose response curve for each dose calculated using the trapezoidal method.
The data in Table I were obtained by averaging the A MAP of all animals for each dose prior to calculating the AOC-MAP. When the data contained in Table I was reviewed for the purpose of calculating the AOC-MAP by averaging the area over the dose response curve for each animal per dose, it was discovered that the AOC-MAP for 0.5 mg/kg RI plus 0.05 mg/kg captopril inadvertently reflected the data based on only three of the six subject test animals. Shown below in Table II are the AOC-MAP data for the experiments reported in Table I, which data is now the result of determining the area over the dose response curve for each animal per dose and averaging the AOC-MAP, as well as determining the standard deviation. […]

[1] = Oldham et al., J. Cardiovasc. Pharmacol. 6: 672-677 (1984); cited from earlier work
[2] = Table I, 0.3 mg/kg i.v., area over curve from MAP change averaged over all animals per dose
[3] = Table I, 1.0 mg/kg i.v., area over curve from MAP change averaged over all animals per dose
[4] = Table II, 0.3 mg/kg i.v., average of area per animal (± standard deviation)
[5] = Table II, 1.0 mg/kg i.v., average of area per animal (± standard deviation)
[6] = Table III, 0.3 mg/kg i.v., average of area per animal
[7] = Table III, 1.0 mg/kg i.v., average of area per animal

Molecule	AOC-MAP (Male Hartley guinea pigs; [2])	AOC-MAP (Male Hartley guinea pigs; [3])	AOC-MAP (Male Hartley guinea pigs; Table I, 3.0 mg/kg i.v., area over curve from MAP change averaged over all animals per dose)	AOC-MAP (Male Hartley guinea pigs; [4])	AOC-MAP (Male Hartley guinea pigs; [5])	AOC-MAP (Male Hartley guinea pigs; Table II, 3.0 mg/kg i.v., average of area per animal (± standard deviation))	AOC-MAP (Male Hartley guinea pigs; [6])	AOC-MAP (Male Hartley guinea pigs; [7])	AOC-MAP (Male Hartley guinea pigs; Table III, 3.0 mg/kg i.v., average of area per animal)	AOC-MAP (Male Hartley guinea pigs; Table I, 0.03 mg/kg i.v., area over curve from MAP change averaged over all animals per dose)	AOC-MAP (Male Hartley guinea pigs; Table I, 0.10 mg/kg i.v., area over curve from MAP change averaged over all animals per dose)	AOC-MAP (Male Hartley guinea pigs; Table II, 0.03 mg/kg i.v., average of area per animal (± standard deviation))	AOC-MAP (Male Hartley guinea pigs; Table II, 0.10 mg/kg i.v., average of area per animal (± standard deviation))	AOC-MAP (Male Hartley guinea pigs; Table III, 0.03 mg/kg i.v., average of area per animal)	AOC-MAP (Male Hartley guinea pigs; Table III, 0.10 mg/kg i.v., average of area per animal)	hypotensive effect of captopril injection during H77 infusion [1]
[alpha-R[alpha-R*, beta-S*(S*,S*)]-alpha-hydroxy-beta-[[2-[[2 -(4-morpholin-1-carboxamido)-1-oxo-3 -phenylpropyllaminol-3 -methylthio-l-oxo-propyl]amino]-cyclohexanebutanoic acid, isopropyl ester [RI]	-256	-496	-1829	-310 (±47)	-568 (±158)	-1990 (±408)										
CCCCc1nc(Cl)c(CO)n1Cc1ccc(-c2ccccc2-c2nn[nH]n2)cc1 [Dup 753]							-125 (±31)	-549 (±96)	-1575 (±281)							
C[C@H](CS)C(=O)N1CCC[C@H]1C(=O)O [captopril]	-1263	-3272		-1036 (±145)	-3272 (±350)		-826 (±128)	-3272 (±350)		-99	-289	-96 (±16)	-283 (±24)	-96 (±16)	-269 (±18)	small additional hypotensive effect
